Literature values in patent publication US20230041069A1, “ELECTROLYTE FOR ELECTROCHEMICAL GAS SENSOR AND ELECTROCHEMICAL GAS SENSOR INCLUDING THE SAME” (Samsung Electronics Co., Ltd., priority 2021, published 2023).

In the case of `CCn1cc[n+](C)c1.N#C[N-]C#N` [compound 6, 1-Ethyl-3-methylimidazolium dicyanamide], the “pKa of an anion's conjugate acid” value is given as 5.
